Where a name gives a salt, the structure may show the parent alone.
Each compound was assayed against 5-HT3a receptor (Homo sapiens (Human), UniProt P46098) (assay: Inhibition of Ca flux activity of 5-HT3 in vitro assay). Settings: approximate IC50; calcium flux, 5-HT3a expressed in HEK-293T cells, 5HT 216 nM; read-out: IC50.
5-HT3a receptor, sequence (P46098 24-478): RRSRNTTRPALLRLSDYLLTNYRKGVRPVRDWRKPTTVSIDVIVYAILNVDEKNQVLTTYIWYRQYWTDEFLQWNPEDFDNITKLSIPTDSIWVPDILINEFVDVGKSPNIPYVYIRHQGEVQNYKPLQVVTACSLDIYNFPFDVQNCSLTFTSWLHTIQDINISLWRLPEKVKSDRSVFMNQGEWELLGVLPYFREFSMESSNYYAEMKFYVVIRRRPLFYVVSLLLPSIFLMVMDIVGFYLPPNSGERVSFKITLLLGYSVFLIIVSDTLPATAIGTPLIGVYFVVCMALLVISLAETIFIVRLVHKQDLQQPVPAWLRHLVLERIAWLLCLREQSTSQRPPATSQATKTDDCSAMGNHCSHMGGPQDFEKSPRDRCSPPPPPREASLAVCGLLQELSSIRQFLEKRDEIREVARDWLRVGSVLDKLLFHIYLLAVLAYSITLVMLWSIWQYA
Type: cell-based
Protocol: The 5-HT3 antagonist activity of the compounds of the invention was determined by measuring the ability of the compounds to inhibit the calcium flux activity of […] receptor expressed in HEK-293T cells. HEK-293T cells were transfected with the 5-HT3a expression construct using Xtreme Gene 9 (Roche) in 150 mm tissue culture treated plates and incubated for 24 hours at 37° C. Cells were then split and plated at a density of 60K cells/well in poly-lysine coated, black 96-well plates with clear bottoms (BD BioSciences) and incubated overnight at 37° C. Growth media was removed and cells loaded with 200 uL calcium indicator dye in HBSS containing 20 mM HEPES (Calcium 5 Assay kit, Molecular Devices) and incubated at 37° C. for 1 hour. While cells were incubating, the 10× antagonist and agonist/antagonist addition plates were made. For 10× antagonist plate: half log serial dilutions (final concentrations range from 10^−7 through 10^−10 with the bottom well a negative, no ligand control) were made from test compounds in DMSO at a 1000× concentration and then diluted to 10× in HBSS/20 mM HEPES. For addition plate: 5HT was diluted to 100× in HBSS/20 mM HEPES (final concentration in the assay—216 nM) and 15 uL was added to each well of the addition plate, 15 uL of 10× compound was also added to the addition plate, and finally 120 uL of HBSS/20 mM HEPES (for a total of 150 uL). Cells were then removed from the incubator and equilibrated to room temperature for 10 minutes, then 22.5 uL of 10× test compounds were added in triplicate to the plates and incubated at room temperature for 10 minutes (Tropisetron was used as a positive control in every assay). Test plate and addition plate were loaded into the FlexStation III (Molecular Devices), and using the fluidics, 22.5 uL compound additions were made (at t=˜17 seconds), and fluorescence was measured for 90 seconds, reading every 2.2 seconds. Data sets were analyzed as max minus min using Software Max Pro (Molecular Devices). IC50 curves were generated using non-linear regression in GraphPad Prism.
`N#Cc1cc(-n2cc(C(=O)O[C@H]3C[C@H]4COC[C@@H](C3)N4)c3ccccc32)ccn1` [Compound 19, (1R,5S,7S)-3-oxa-9-azabicyclo[3.3.1]nonan-7-yl 1-(2-cyanopyridin-4-yl)-1H-indole-3-carboxylate, 2,2,2-trifluoroacetic acid salt] was tested, and the IC50 was 3.68 nM. In the case of `O=C(O[C@H]1C[C@H]2COC[C@@H](C1)N2)c1cn(-c2cccnc2)c2ccccc12` [Compound 5, (1R,5S,7S)-3-oxa-9-azabicyclo [3.3.1]nonan-7-yl 1-(pyridin-3-yl)-1H-indole-3-carboxylate, 2,2,2-trifluoroacetate], the IC50 is reported as 0.62 nM. For `CN1[C@@H]2COC[C@H]1C[C@@H](NC(=O)c1cn(-c3cccnc3)c3ncc(F)cc13)C2` [Compound 13, 5-fluoro-N-((1R,5S,7S)-9-methyl-3-oxa-9-azabicyclo [3.3.1]nonan-7-yl)-1-(pyridin-3-yl)-1H-pyrrolo[2,3-b]pyridine-3-carboxamide, 2,2,2-trifluoroacetic acid salt], the IC50 was 0.72 nM. For `CN1[C@@H]2COC[C@H]1C[C@@H](NC(=O)c1cn(-c3ccccn3)c3ncc(F)cc13)C2` [Compound 12, 5-fluoro-N-((1R,5S,7S)-9-methyl-3-oxa-9-azabicyclo [3.3.1]nonan-7-yl)-1-(pyridin-2-yl)-1H-pyrrolo[2,3-b]pyridine-3-carboxamide, 2,2,2-trifluoroacetic acid salt], the IC50 was 0.882 nM. `Cn1cc(-n2cc(C(=O)O[C@H]3C[C@H]4COC[C@@H](C3)N4)c3ccccc32)cn1` [Compound 9, (1R,5S,7S)-3-oxa-9-azabicyclo [3.3.1]nonan-7-yl 1-(1-methyl-1H-pyrazol-4-yl)-1H-indol-3-carboxylate, 2,2,2-trifluoroacetic acid salt] was tested, and the IC50 was 0.68 nM. `CN1[C@@H]2COC[C@H]1CC(NC(=O)c1cn(-c3cccnc3)c3ccccc13)C2` (stereo partly drawn) [Compound 6, N-((1R,5S,7S)-9-methyl-d3-3-oxa-9-azabicyclo[3.3.1]nonan-7-yl)-1-(pyridin-3-yl)-1H-indole-3-carboxamide, 2,2,2-trifluoroacetate] was tested, and the IC50 was 1.1 nM. For `CN1[C@@H]2COC[C@H]1C[C@@H](NC(=O)c1cn(-c3cnn(C(F)F)c3)c3ccccc13)C2` [Compound 25, 1-(1-(difluoromethyl)-1H-pyrazol-4-yl)-N-((1R,5S,7S)-9-methyl-3-oxa-9-azabicyclo [3.3.1]nonan-7-yl)-1H-indole-3-carboxamide], the IC50 was 1.39 nM. With `CN1[C@@H]2COC[C@H]1C[C@@H](NC(=O)c1cn(-c3ccn(C)n3)c3ccccc13)C2` [Compound 17, 1-(1-methyl-1H-pyrazol-3-yl)-N-((1R,5S,7S)-9-methyl-3-oxa-9-azabicyclo [3.3.1]nonan-7-yl)-1H-indole-3-carboxamide, 2,2,2-trifluoroacetic acid salt] the IC50 was 0.75 nM. Work on `CN1[C@@H]2COC[C@H]1C[C@@H](NC(=O)c1cn(-c3cccnc3)c3ccccc13)C2` [Compound 2, N-((1R,5S,7S)-9-methyl-3-oxa-9-azabicyclo[3.3.1]nonan-7-yl)-1-(pyridin-3-yl)-1H-indole-3-carboxamide, 2,2,2-trifluoroacetate] yielded an IC50 of 0.51 nM. `CN1[C@@H]2COC[C@H]1C[C@@H](NC(=O)c1cn(-c3ccccn3)c3ccccc13)C2` [Compound 8, N-((1R,5S,7S)-9-methyl-d3-3-oxa-9-azabicyclo[3.3.1]nonan-7-yl)-1-(pyridin-2-yl)-1H-indole-3-carboxamide, 2,2,2-trifluoroacetate] gave an IC50 of 0.81 nM. `CN1[C@@H]2COC[C@H]1C[C@@H](OC(=O)c1cn(-c3cnn(CCF)c3)c3ccccc13)C2` [Compound 18, (1R,5S,7S)-9-methyl-3-oxa-9-azabicyclo[3.3.1]nonan-7-yl 1-(1-(2-fluoroethyl)-1H-pyrazol-4-yl)-1H-indole-3-carboxylate, 2,2,2-trifluoroacetic acid salt] was tested, and the IC50 was 2.01 nM. `CN1[C@@H]2COC[C@H]1C[C@@H](NC(=O)c1cn(-c3ccnn3C)c3ccccc13)C2` [Compound 23, 1-(1-methyl-1H-pyrazol-5-yl)-N-((1R,5S,7S)-9-methyl-3-oxa-9-azabicyclo[3.3.1]nonan-7-yl)-1H-indole-3-carboxamide, 2,2,2-trifluoroacetic acid salt] gave an IC50 of 1.01 nM. Work on `CN1[C@@H]2COC[C@H]1C[C@@H](NC(=O)c1cn(-c3cccnc3)c3ncccc13)C2` [Compound 11, N-((1R,5S,7S)-9-methyl-3-oxa-9-azabicyclo[3.3.l]nonan-7-yl)-1-(pyridin-3-yl)-1H-pyrrolo[2,3-b]pyridine-3-carboxamide, 2,2,2-trifluoroacetic acid salt] yielded an IC50 of 0.6 nM. Compound `CN1[C@@H]2COC[C@H]1C[C@@H](NC(=O)c1cn(-c3ccccn3)c3ccccc13)C2` [Compound 3, N-((1R,5S,7S)-9-methyl-3-oxa-9-azabicyclo[3.3.1]nonan-7-yl)-1-(pyridin-2-yl)-1H-indole-3-carboxamide, 2,2,2-trifluoroacetate] has an IC50 of 0.96 nM. Work on `CN1[C@@H]2COC[C@H]1CC(NC(=O)c1cn(-c3ccncc3)c3ccccc13)C2` (stereo partly drawn) [Compound 4, N-((1R,5S,7S)-9-methyl-3-oxa-9-azabicyclo[3.3.1]nonan-7-yl)-1-(pyridin-4-yl)-1H-indole-3-carboxamide, 2,2,2-trifluoroacetate] yielded an IC50 of 0.69 nM. For `CCN1[C@@H]2COC[C@H]1C[C@@H](NC(=O)c1cn(-c3cnn(C)c3)c3ccccc13)C2` [Compound 31, N-((1R,5S,7S)-9-ethyl-3-oxa-9-azabicyclo[3.3.1]nonan-7-yl)-1-(1-methyl-1H-pyrazol-4-yl)-1H-indole-3-carboxamide], the IC50 was greater than 1000 nM. For `Cn1cc(-n2cc(C(=O)N[C@H]3C[C@H]4COC[C@@H](C3)N4)c3ccccc32)cn1` [Compound 28, N-((1R,5S,7S)-3-oxa-9-azabicyclo[3.3.1]nonan-7-yl)-1-(1-methyl-1H-pyrazol-4-yl)-1H-indole-3-carboxamide], the IC50 was 2.04 nM. `O=C(N[C@H]1C[C@H]2COC[C@@H](C1)N2)c1cn(-c2cn[nH]c2)c2ccccc12` [Compound 30, N-((1R,5S,7S)-3-oxa-9-azabicyclo[3.3.1]nonan-7-yl)-1-(1H-pyrazol-4-yl)-1H-indole-3-carboxamide] gave an IC50 of 0.745 nM. `CN1[C@@H]2COC[C@H]1C[C@@H](NC(=O)c1nn(-c3ccccn3)c3ccccc13)C2` [Compound 14, N-((1R,5S,7S)-9-methyl-3-oxa-9-azabicyclo[3.3.1]nonan-7-yl)-1-(pyridin-2-yl)-1H-indazole-3-carboxamide, 2,2,2-trifluoroacetic acid salt] gave an IC50 of 1.34 nM. `Cc1ncccc1-n1cc(C(=O)N[C@H]2C[C@H]3COC[C@@H](C2)N3C)c2ccccc21` [Compound 20, N-((1R,5S,7S)-9-methyl-3-oxa-9-azabicyclo[3.3.1]nonan-7-yl)-1-(2-methylpyridin-3-yl)-1H-indole-3-carboxamide, 2,2,2-trifluoroacetic acid salt] gave an IC50 of 1.5 nM. Work on `CN1[C@@H]2COC[C@H]1C[C@@H](OC(=O)c1cn(-c3ccccn3)c3ccccc13)C2` [Compound 7, (1R,5S,7S)-9-methyl-d3-3-oxa-9-azabicyclo[3.3.1]nonan-7-yl 1-(pyridin-2-yl)-1H-indole-3-carboxylate, 2,2,2-trifluoroacetate] yielded an IC50 of 2.86 nM. `Cc1ccncc1-n1cc(C(=O)N[C@H]2C[C@H]3COC[C@@H](C2)N3C)c2ccccc21` [Compound 21, N-((1R,5S,7S)-9-methyl-3-oxa-9-azabicyclo[3.3.1]nonan-7-yl)-1-(4-methylpyridin-3-yl)-1H-indole-3-carboxamide, 2,2,2-trifluoroacetic acid salt] was tested, and the IC50 was 1.1 nM.
